Columns and labels:
NEMO/IKKβ complex = target: T1, NEMO/IKKβ complex (Homo sapiens, UniProt O14920+Q9Y6K9); assay: Co-immunoprecipitation of NEMO/IKKβ; details: pre-formed complex, Co-IP
T1 construct: expressed in transfected cells; host or cells: HEK293T
Experimental: The pre-cleared cell lysates were incubated with an anti-HA antibody on a rotating platform at 4 °C for 2 h, and then incubated for another 6 h with protein A/G-sepharose beads. The sepharose beads were washed three times with binding buffer, mixed with gel loading buffer and boiled for 5 min. The samples were centrifuged and the supernatants were used for western blot analysis. A specific antibody against the Flag-tag was applied for the detection of proteins.
The IKKβ and NEMO expression vectors were constructed by subcloning the full-length cDNA to pENTER-4T1 expression vector (Flag- or HA-tagged) developed by ViGene Biosciences, as described previously.[25] The 293T cells (1 × 10^6) were plated into 60 mm dishes for 1 day, and then transfected with the relevant plasmids encoding HA-IKKβ and Flag-NEMO using Lipofectamine 2000 transfection reagent (Invitrogen). After transfection, the cells were cultured for another 24 h. Subsequently, the transfected cells were trypsinized and seeded into 60 mm dishes, followed by culturing with fresh medium containing the indicated doses of SHK for 48 h, and then collected for the Co-IP assay.

[1] = test system: colorectal cancer cells (LoVo, RKO, SW620, HCT15, HCT116); assay: CCK-8 cell viability assay, colorectal cancer cells; type: cell-based, human; details: LoVo, RKO, SW620, HCT15, HCT116; 48 h
Experimental: Cell viability was determined using the CCK-8 assay. Briefly, 5×10³ cells were seeded into 96-well culture plates, allowed to adhere for overnight, and then changed to fresh medium containing various concentrations of SHK (0, 0.5, 1, 2 and 5 µM) dissolved in DMSO (final concentration, 0.1%). After incubation for 48 h, the CCK-8 reagent was added, and the absorbance was measured at 450 nm using an EnSpire® Multimode Plate Reader (Perkin Elmer, USA). The cell viability in the vehicle control groups was defined as 100%. Each assay was carried out in triplicate.

T1 sequence (Q9Y6K9 1-196): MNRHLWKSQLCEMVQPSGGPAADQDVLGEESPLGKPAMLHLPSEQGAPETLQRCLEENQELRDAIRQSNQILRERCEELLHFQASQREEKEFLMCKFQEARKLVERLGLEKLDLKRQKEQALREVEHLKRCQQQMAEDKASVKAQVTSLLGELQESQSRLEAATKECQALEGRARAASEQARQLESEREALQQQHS
T1 sequence (O14920 701-745): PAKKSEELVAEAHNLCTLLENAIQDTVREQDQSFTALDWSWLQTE

| Compound | ability to destabilize the NEMO/IKKβ complex (NEMO/IKKβ complex) | growth inhibition of cancer cell lines [1] |
| --- | --- | --- |
| CC(=O)O[C@H](CC=C(C)C)C1=CC(=O)c2c(O)ccc(O)c2C1=O [ASHK, acetyl shikonin] | lost the ability to destabilize the NEMO/IKKβ complex | only slight growth inhibition |
| CC(C)=CCCC1=CC(=O)c2c(O)ccc(O)c2C1=O [DSHK, deoxyshikonin] | lost the ability to destabilize the NEMO/IKKβ complex | only slight growth inhibition |
| COC(CC=C(C)C)C1=CC(=O)c2c(O)ccc(O)c2C1=O (stereo not drawn) [MSHK, methylshikonin] | lost the ability to destabilize the NEMO/IKKβ complex | only slight growth inhibition |

From article PMC8904520, “Characterization of a small-molecule inhibitor targeting NEMO/IKKβ to suppress colorectal cancer growth” (Signal Transduction and Targeted Therapy, 2022)
